Measurements: patent US20140308317A1, “Polymeric Compounds And Methods Of Making And Using The Same” (CELLCEUTIX CORPORATION, priority 2012, published 2014)
Converted amounts (≈) assume the structure as drawn. Where two headings read alike, the source gives them in different places.

Tests used:
[1] = test system: Pseudomonas aeruginosa ATCC 10145; assay: Minimum Inhibitory Concentration (MIC), modified microbroth dilution; type: cell-based; conditions: P. aeruginosa (10145), overnight incubation (18 hours)
[2] = test system: NIH/3T3 cells, CRL-1658; assay: Cytotoxicity colorimetric (tetrazolium) assay; type: cell-based, mouse
Outline: (§1)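 HepG2 (MEM, 10% FBS) and NIH/3T3 (DMEM, 10% BCS) monolayers seeded at 2×10^4 cells/well 24 h before use, then exposed to compounds for one hour in serum-free medium. After return to serum-containing medium, viable cells read by tetrazolium bioreduction to formazan. EC50 in μg/mL from four-parameter logistic fit.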

[3] = test system: HepG2, HB-8065; assay: Cytotoxicity colorimetric (tetrazolium) assay; type: cell-based, human
Outline: as §1

[4] = test system: Klebsiella pneumoniae ATCC 13883; assay: Minimum Inhibitory Concentration (MIC), modified microbroth dilution; type: cell-based; conditions: K. pneumoniae (13883), overnight incubation (18 hours)
[5] = test system: Staphylococcus aureus ATCC 27660; assay: as above; type: cell-based; conditions: S. aureus (27660), overnight incubation (18 hours)
[6] = test system: S. enteritidis ATCC 13076; assay: Time-kill study; type: cell-based
Procedure: Time-kill studies of the compounds versus S. enteritidis ATCC 13076, E. coli ATCC25922, E. coli (lab strain) D31, and S. aureus ATCC27660 were determined in a standard protocol by measuring the time it takes to reduce the initial inoculums 3 log units. Three mL of cation-adjusted Mueller-Hinton medium was inoculated with 20 μL of frozen bacterial stock and incubated at 37° C. on a shaker platform (at 250 rpm) overnight. The suspension was diluted to approximately 5×10^5 cfu/mL and treated with 2×, 5×, 10×, and 20×MIC (MIC=1 μg/mL). The compound stock solutions were prepared at 10 mg/mL in DMSO. Time points were collected and viable bacteria were counted on MH Agar plates after an 18 hour incubation.
The time kill study was carried on Compound 200 against S. enteritidis ATCC 13076.

[7] = test system: Enterococcus faecalis ATCC 29212; assay: Minimum Inhibitory Concentration (MIC), modified microbroth dilution; type: cell-based; conditions: E. faecalis (29212), overnight incubation (18 hours)
[8] = test system: E. Coli ATCC 25922; assay: as above; type: cell-based; conditions: E. coli (25922), overnight incubation (18 hours)
[9] = Cytotoxicity colorimetric (tetrazolium) assay; type: cell-based, mouse; conditions: mouse, NIH/3T3 cells (CRL-1658), NIH/3T3 cells; one hour with compound in serum-free media
Outline: as §1

[10] = Cytotoxicity colorimetric (tetrazolium) assay; type: cell-based, human; conditions: human, HepG2 cells (HB-8065), HepG2 cells; one hour with compound in serum-free media
Outline: as §1

[11] = NIH/3T3 cells, one hour with compound in serum-free media
[12] = HepG2 cells, one hour with compound in serum-free media

Row | Structure (SMILES) | MIC50 P. Aeruginosa [1] [µg/mL] | EC50 NIH 3T3 (cytotoxicity) [2, 11] [µg/mL] | EC50 HepG2 (cytotoxicity) [3, 12] [µg/mL] | MIC50 K. Pnuemnoiae [4] [µg/mL] | MIC50 S. aureus [5] [µg/mL] | time at which bacterial growth was reduced more than 3 log ([6]; 2×MIC) [hour] | time at which bacterial growth was reduced more than 3 log ([6]; 5×MIC) [hour] | time at which bacterial growth was reduced more than 3 log ([6]; 10×MIC) [hour] | MIC50 E. faecalis [7] [µg/mL] | MIC50 E. coli [8] [µg/mL] | MIC50 ([1]; Pseudomonas aeruginosa, ATCC10145, read-out: MIC50 P. Aeruginosa) [µg/mL] | EC50 at 1 h [9] [µg/mL] | EC50 at 1 h [10] [µg/mL] | MIC50 ([4]; Klebsiella pneumoniae, ATCC13883, read-out: MIC50 K. Pnuemnoiae) [µg/mL] | MIC50 ([5]; Staphylococcus aureus, ATCC27660, read-out: MIC50 S. aureus) [µg/mL] | MIC50 ([7]; Enterococcus faecalis, ATCC29212, read-out: MIC50 E. faecalis) [µg/mL] | MIC50 ([8]; Escherichia coli, ATCC25922, read-out: MIC50 E. coli) [µg/mL] | EC50 NIH 3T3 (cytotoxicity) [2] [µg/mL] | EC50 HepG2 (cytotoxicity) [3] [µg/mL]
1 | NCCCOc1cc(OCCCN)cc(-c2ccc3sc4ccc(-c5cc(OCCCN)cc(OCCCN)c5)cc4c3c2)c1 [Compound 200] | 3.13 (≈ 4.98 µM) | 155 (≈ 246 µM) | 126 (≈ 200 µM) | 1.56 (≈ 2.48 µM) | 0.049 (≈ 0.0779 µM) | 3.75 | 1.55 | 1.35 | 0.39 (≈ 0.62 µM) | 0.78 (≈ 1.24 µM) |  |  |  |  |  |  |  |  | 
2 | NCCCOc1cc(OCCCN)cc(-c2ccc3c(c2)C(=O)c2cc(-c4cc(OCCCN)cc(OCCCN)c4)ccc2CC3)c1 [Compound 156] |  | 88.1 (≈ 135 µM) | 143.7 (≈ 220 µM) |  |  |  |  |  |  |  | 6.25 (≈ 9.57 µM) | 49.4 (≈ 75.7 µM) | 74.2 (≈ 114 µM) | 12.5 (≈ 19.1 µM) | 0.098 (≈ 0.15 µM) | 12.5 (≈ 19.1 µM) | 3.13 (≈ 4.79 µM) |  | 
3 | Nc1cccc(-c2ccc3[nH]c4ccc(-c5cccc(N)c5)cc4c3c2)c1 [Compound 177] | 12.5 (≈ 35.8 µM) | 487 (≈ 1390 µM) | >1000 | >50 | 1.56 (≈ 4.46 µM) |  |  |  | >50 | 1.56 (≈ 4.46 µM) |  |  |  |  |  |  |  |  | 
4 | NCCCOc1cc(OCCCN)cc(-c2ccc3c(c2)c2ccccc2n3CCCN)c1 [Compound 161] | 50 (≈ 112 µM) |  |  | >50 | 25 (≈ 56 µM) |  |  |  | 3.13 (≈ 7.01 µM) | >50 |  |  |  |  |  |  |  | >1000 | 790 (≈ 1770 µM)
5 | NCCc1cccc(-c2cc3c(c(-c4cccc(CCN)c4)c2)CCc2ccccc2C3=O)c1 [Compound 152] | 25 (≈ 56 µM) | 20.9 (≈ 46.8 µM) | 27.5 (≈ 61.6 µM) | 6.25 (≈ 14 µM) | 1.56 (≈ 3.49 µM) |  |  |  | 3.13 (≈ 7.01 µM) | 3.13 (≈ 7.01 µM) |  |  |  |  |  |  |  |  | 
